Experimental data: ChEMBL document CHEMBL4296183, “CO-ADD screening of NIH NCI Natural Product Set III” (2020)
In brackets after ≈: the same amount, converted by molar mass.

Key:
[1] = system: HEK293; assay: cells; format: functional; details: Homo sapiens, ATCC CRL1573, HEK293; ASSAY_TEST Inhibition of Cell Viability; detection method Resazurin; Fluorescence (ex560/em590); MEDIA DMEM with 10% FBS; plate type 384well; TC; CORNING #3712; time 18 hr
[2] = system: Cryptococcus neoformans
Description: Antifungal activity against Cryptococcus neoformans H99 ATCC 208821 (CO-ADD:FG_002); MIC in YNB media using NBS plates, by Resazurin OD(600-570)

[3] = system: Staphylococcus aureus; assay: microbe, parasite or virus in culture; details: ATCC 43300, 18 h, ASSAY_TEST Inhibition of Bacterial Growth, detection method Absorption (OD600), MEDIA CAMHB, plate type 384well, NBS, CORNING #3640
Description: Antibacterial activity against Staphylococcus aureus MRSA ATCC 43300 (CO-ADD:GP_020); MIC in CAMBH media, using NBS plates, by OD(600)

[4] = system: Escherichia coli; assay: microbe, parasite or virus in culture; details: ATCC 25922, 18 h, ASSAY_TEST Inhibition of Bacterial Growth, detection method Absorption (OD600), MEDIA CAMHB, plate type 384well, NBS, CORNING #3640
Description: Antibacterial activity against Escherichia coli ATCC 25922 (CO-ADD:GN_001); MIC in CAMBH media using NBS plates, by OD(600)

[5] = system: Klebsiella pneumoniae; assay: microbe, parasite or virus in culture; details: ATCC 700603, 18 h, ASSAY_TEST Inhibition of Bacterial Growth, detection method Absorption (OD600), MEDIA CAMHB, plate type 384well, NBS, CORNING #3640
Description: Antibacterial activity against Klebsiella pneumoniae MDR ATCC 70063 (CO-ADD:GN_003); MIC in CAMBH media using NBS plates, by OD(600)

[6] = system: Pseudomonas aeruginosa; assay: microbe, parasite or virus in culture; details: ATCC 27853, 18 h, ASSAY_TEST Inhibition of Bacterial Growth, detection method Absorption (OD600), MEDIA CAMHB, plate type 384well, NBS, CORNING #3640
Description: Antibacterial activity against Pseudomonas aeruginosa ATCC 27853 (CO-ADD:GN_042); MIC in CAMBH media using NBS plates, by OD(600)

[7] = system: Acinetobacter baumannii; assay: microbe, parasite or virus in culture; details: ATCC 19606, 18 h, ASSAY_TEST Inhibition of Bacterial Growth, detection method Absorption (OD600), MEDIA CAMHB, plate type 384well, NBS, CORNING #3640
Description: Antibacterial activity against Acinetobacter baumannii ATCC 19606 (CO-ADD:GN_034); MIC in CAMBH media using NBS plates, by OD600

[8] = system: Candida albicans; assay: microbe, parasite or virus in culture; details: ATCC 90028, ASSAY_TEST Inhibition of Fungal Growth, detection method Absorption (OD530), plate type 384well, NBS, CORNING #3640
Description: Antifungal activity against Candida albicans ATCC 90028 (CO-ADD:FG_001); MIC in YNB media using NBS plates, by OD630

Row | MIC [2] | MIC [3] | MIC [4] | MIC [5] | MIC [6] | MIC [7] | MIC [8] | Structure (SMILES) | CC50 [1]
1 | 0.156 µM (≈ 0.143 µg/mL) | > 10 µM | > 10 µM | > 10 µM | > 10 µM | > 10 µM | ≤ 0.0781 µM | CO[C@H]1C[C@@H]2CC[C@@H](C)[C@@](O)(O2)C(=O)C(=O)N2CCCC[C@H]2C(=O)O[C@H]([C@H](C)C[C@@H]2CC[C@@H](O)[C@H](OC)C2)CC(=O)[C@H](C)/C=C(\C)[C@@H](O)[C@@H](OC)C(=O)[C@H](C)C[C@H](C)/C=C/C=C/C=C/1C [SIROLIMUS] | > 10 µM
2 | 1.25 µM (≈ 0.633 µg/mL) | ≤ 0.0781 µM | 5 µM (≈ 2.53 µg/mL) | > 10 µM | 10 µM (≈ 5.06 µg/mL) | > 10 µM | 0.156 µM (≈ 0.0792 µg/mL) | COC1=C(N)C(=O)c2nc(-c3nc(C(=O)O)c(C)c(-c4ccc(OC)c(OC)c4O)c3N)ccc2C1=O [STREPTONIGRIN] | 0.115 µM

Row | Structure (SMILES) | MIC [2] | MIC [3] | MIC [4] | MIC [5] | MIC [6] | MIC [7] | MIC [8] | CC50 [1]
3 | COC[C@H]1OC(=O)c2coc3c2[C@@]1(C)C1=C(C3=O)[C@@H]2CCC(=O)[C@@]2(C)C[C@H]1OC(C)=O [WORTMANNIN] | 5 µM (≈ 2.14 µg/mL) | > 10 µM | > 10 µM | > 10 µM | > 10 µM | > 10 µM | 0.625 µM (≈ 0.268 µg/mL) | 7.83 µM
